According to PubChem BioAssay (NCI):
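Test compounds were applied to cells in 96-well plates for 48 hours at 5 doses. Definition used: TGI = concentration required for complete inhibition of growth.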

Key:
Assay in all cases: growth of human tumour cells (NCI), 48 h
M14 melanoma = tested on: M14 melanoma
MOLT-4 leukemia = tested on: MOLT-4 leukemia
OVCAR-4 ovarian = tested on: OVCAR-4 ovarian
SNB-75 CNS = tested on: SNB-75 CNS
SNB-19 CNS = tested on: SNB-19 CNS
A498 renal = tested on: A498 renal
RPMI-8226 leukemia = tested on: RPMI-8226 leukemia
MALME-3M melanoma = tested on: MALME-3M melanoma
LOX IMVI melanoma = tested on: LOX IMVI melanoma
IGROV1 ovarian = tested on: IGROV1 ovarian
HT29 colon = tested on: HT29 colon
UACC-257 melanoma = tested on: UACC-257 melanoma
NCI/ADR-RES ovarian = tested on: NCI/ADR-RES ovarian
SK-MEL-5 melanoma = tested on: SK-MEL-5 melanoma
BT-549 breast = tested on: BT-549 breast
OVCAR-3 ovarian = tested on: OVCAR-3 ovarian
OVCAR-5 ovarian = tested on: OVCAR-5 ovarian
HS 578T breast = tested on: HS 578T breast
SF-268 CNS = tested on: SF-268 CNS
DU-145 prostate = tested on: DU-145 prostate
NCI-H226 lung = tested on: NCI-H226 lung
CCRF-CEM leukemia = tested on: CCRF-CEM leukemia
MCF7 breast = tested on: MCF7 breast
UACC-62 melanoma = tested on: UACC-62 melanoma
SK-OV-3 ovarian = tested on: SK-OV-3 ovarian
RXF 393 renal = tested on: RXF 393 renal
HCT-15 colon = tested on: HCT-15 colon
TK-10 renal = tested on: TK-10 renal
SK-MEL-28 melanoma = tested on: SK-MEL-28 melanoma
SR leukemia = tested on: SR leukemia
EKVX NSCLC = tested on: EKVX NSCLC
HOP-92 NSCLC = tested on: HOP-92 NSCLC
HCT-116 colon = tested on: HCT-116 colon
HCC-2998 colon = tested on: HCC-2998 colon
NCI-H460 lung = tested on: NCI-H460 lung
OVCAR-8 ovarian = tested on: OVCAR-8 ovarian
SN12C renal = tested on: SN12C renal
786-0 renal = tested on: 786-0 renal
MDA-N = tested on: MDA-N
ACHN renal = tested on: ACHN renal
KM12 colon = tested on: KM12 colon
U251 CNS = tested on: U251 CNS
NCI-H23 lung = tested on: NCI-H23 lung
UO-31 renal = tested on: UO-31 renal
SK-MEL-2 melanoma = tested on: SK-MEL-2 melanoma
COLO 205 colon = tested on: COLO 205 colon
MDA-MB-231 breast = tested on: MDA-MB-231 breast
NCI-H522 lung = tested on: NCI-H522 lung
K-562 leukemia = tested on: K-562 leukemia
T-47D breast = tested on: T-47D breast
SF-295 CNS = tested on: SF-295 CNS
HL-60(TB) leukemia = tested on: HL-60(TB) leukemia
A549 NSCLC = tested on: A549 NSCLC
PC-3 prostate = tested on: PC-3 prostate
SW-620 colon = tested on: SW-620 colon
HOP-62 NSCLC = tested on: HOP-62 NSCLC
MDA-MB-435 = tested on: MDA-MB-435
CAKI-1 renal = tested on: CAKI-1 renal
SF-539 CNS = tested on: SF-539 CNS

## Oc1ccccc1C(Sc1nc2ccccc2s1)Sc1nc2ccccc2s1
M14 melanoma
  TGI: > 100 µM
MOLT-4 leukemia
  TGI: > 100 µM
OVCAR-4 ovarian
  TGI: > 100 µM
SNB-75 CNS
  TGI: > 100 µM
SNB-19 CNS
  TGI: > 100 µM
A498 renal
  TGI: > 100 µM
RPMI-8226 leukemia
  TGI: > 100 µM
MALME-3M melanoma
  TGI: > 100 µM
LOX IMVI melanoma
  TGI: > 100 µM
IGROV1 ovarian
  TGI: > 100 µM
HT29 colon
  TGI: > 100 µM
UACC-257 melanoma
  TGI: > 100 µM
NCI/ADR-RES ovarian
  TGI: > 100 µM
SK-MEL-5 melanoma
  TGI: > 100 µM
BT-549 breast
  TGI: > 100 µM
OVCAR-3 ovarian
  TGI: > 100 µM
OVCAR-5 ovarian
  TGI: > 100 µM
HS 578T breast
  TGI: > 100 µM
SF-268 CNS
  TGI: > 100 µM
DU-145 prostate
  TGI: > 100 µM
NCI-H226 lung
  TGI: > 100 µM
CCRF-CEM leukemia
  TGI: > 100 µM
MCF7 breast
  TGI: > 100 µM
UACC-62 melanoma
  TGI: > 100 µM
SK-OV-3 ovarian
  TGI: > 100 µM
RXF 393 renal
  TGI: > 100 µM
HCT-15 colon
  TGI: > 100 µM
TK-10 renal
  TGI: > 100 µM
SK-MEL-28 melanoma
  TGI: > 100 µM
SR leukemia
  TGI: > 100 µM
EKVX NSCLC
  TGI: 77.9 µM
HOP-92 NSCLC
  TGI: 95 µM
HCT-116 colon
  TGI: > 100 µM
HCC-2998 colon
  TGI: > 100 µM
NCI-H460 lung
  TGI: > 100 µM
OVCAR-8 ovarian
  TGI: > 100 µM
SN12C renal
  TGI: > 100 µM
786-0 renal
  TGI: > 100 µM
MDA-N
  TGI: > 100 µM
ACHN renal
  TGI: > 100 µM
KM12 colon
  TGI: > 100 µM
U251 CNS
  TGI: > 100 µM
NCI-H23 lung
  TGI: > 100 µM
UO-31 renal
  TGI: > 100 µM
SK-MEL-2 melanoma
  TGI: > 100 µM
COLO 205 colon
  TGI: > 100 µM
MDA-MB-231 breast
  TGI: > 100 µM
NCI-H522 lung
  TGI: 56.8 µM
K-562 leukemia
  TGI: > 100 µM
T-47D breast
  TGI: 73.5 µM
SF-295 CNS
  TGI: > 100 µM
HL-60(TB) leukemia
  TGI: > 100 µM
A549 NSCLC
  TGI: > 100 µM
PC-3 prostate
  TGI: > 100 µM
SW-620 colon
  TGI: > 100 µM
HOP-62 NSCLC
  TGI: > 100 µM
MDA-MB-435
  TGI: > 100 µM
CAKI-1 renal
  TGI: > 100 µM

## CCCCN1C(=O)N(c2ccc(OCC)cc2)C2N(CCCC)C1C(C)(C)C2(C)C (configuration not stated)
M14 melanoma
  TGI: > 100 µM
OVCAR-4 ovarian
  TGI: > 100 µM
SNB-75 CNS
  TGI: > 100 µM
SNB-19 CNS
  TGI: > 100 µM
A498 renal
  TGI: > 100 µM
RPMI-8226 leukemia
  TGI: 42 µM
MALME-3M melanoma
  TGI: 73.1 µM
LOX IMVI melanoma
  TGI: > 100 µM
IGROV1 ovarian
  TGI: > 100 µM
HT29 colon
  TGI: > 100 µM
SF-539 CNS
  TGI: 41.9 µM
UACC-257 melanoma
  TGI: > 100 µM
NCI/ADR-RES ovarian
  TGI: 77.6 µM
SK-MEL-5 melanoma
  TGI: 67.7 µM
BT-549 breast
  TGI: > 100 µM
OVCAR-3 ovarian
  TGI: 54 µM
HS 578T breast
  TGI: 75.2 µM
SF-268 CNS
  TGI: 67.7 µM
DU-145 prostate
  TGI: > 100 µM
NCI-H226 lung
  TGI: 49.3 µM
CCRF-CEM leukemia
  TGI: 63.7 µM
MCF7 breast
  TGI: 47.5 µM
UACC-62 melanoma
  TGI: 50 µM
SK-OV-3 ovarian
  TGI: 57 µM
RXF 393 renal
  TGI: 39.1 µM
HCT-15 colon
  TGI: > 100 µM
TK-10 renal
  TGI: 60.2 µM
SK-MEL-28 melanoma
  TGI: > 100 µM
EKVX NSCLC
  TGI: 50.6 µM
HOP-92 NSCLC
  TGI: 85.1 µM
HCT-116 colon
  TGI: > 100 µM
HCC-2998 colon
  TGI: > 100 µM
NCI-H460 lung
  TGI: > 100 µM
OVCAR-8 ovarian
  TGI: > 100 µM
SN12C renal
  TGI: > 100 µM
786-0 renal
  TGI: > 100 µM
MDA-N
  TGI: > 100 µM
ACHN renal
  TGI: > 100 µM
KM12 colon
  TGI: > 100 µM
U251 CNS
  TGI: > 100 µM
NCI-H23 lung
  TGI: > 100 µM
UO-31 renal
  TGI: 88.9 µM
SK-MEL-2 melanoma
  TGI: > 100 µM
COLO 205 colon
  TGI: 70 µM
MDA-MB-231 breast
  TGI: > 100 µM
NCI-H522 lung
  TGI: > 100 µM
T-47D breast
  TGI: > 100 µM
SF-295 CNS
  TGI: > 100 µM
A549 NSCLC
  TGI: > 100 µM
PC-3 prostate
  TGI: > 100 µM
SW-620 colon
  TGI: > 100 µM
HOP-62 NSCLC
  TGI: > 100 µM
MDA-MB-435
  TGI: 97.3 µM
CAKI-1 renal
  TGI: 93.8 µM
